From PubChem BioAssay (NCI)
“And” between values parts separate entries of the source, which are not always exact repeats. Identical values can stand only once.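 Grown in 96-well plates, cells were treated for 48 hours with each compound at five concentrations. Insufficient inhibition: endpoint recorded as highest concentration tested. GI50: concentration for 50% inhibition of growth. TGI: total growth inhibition.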

Tests used:
Assay in all cases: NCI-60 cell line screen, 48 h; in the data active = GI50 below about 0.43 µM; inactive = the rest
HCT-116 colon = system: HCT-116 colon
EKVX NSCLC = system: EKVX NSCLC
U251 CNS = system: U251 CNS
OVCAR-3 ovarian = system: OVCAR-3 ovarian
PC-3 prostate = system: PC-3 prostate
HCT-15 colon = system: HCT-15 colon
UACC-62 melanoma = system: UACC-62 melanoma
HOP-92 NSCLC = system: HOP-92 NSCLC
CCRF-CEM leukemia = system: CCRF-CEM leukemia
MDA-MB-231 breast = system: MDA-MB-231 breast
HL-60(TB) leukemia = system: HL-60(TB) leukemia
A549 NSCLC = system: A549 NSCLC
SK-MEL-5 melanoma = system: SK-MEL-5 melanoma
SNB-19 CNS = system: SNB-19 CNS
MCF7 breast = system: MCF7 breast
TK-10 renal = system: TK-10 renal
BT-549 breast = system: BT-549 breast
UACC-257 melanoma = system: UACC-257 melanoma
SK-MEL-2 melanoma = system: SK-MEL-2 melanoma
OVCAR-4 ovarian = system: OVCAR-4 ovarian
COLO 205 colon = system: COLO 205 colon
ACHN renal = system: ACHN renal
CAKI-1 renal = system: CAKI-1 renal
M14 melanoma = system: M14 melanoma
NCI-H226 lung = system: NCI-H226 lung
NCI/ADR-RES ovarian = system: NCI/ADR-RES ovarian
DU-145 prostate = system: DU-145 prostate
A498 renal = system: A498 renal
OVCAR-5 ovarian = system: OVCAR-5 ovarian
NCI-H522 lung = system: NCI-H522 lung
UO-31 renal = system: UO-31 renal
HT29 colon = system: HT29 colon
RXF 393 renal = system: RXF 393 renal
SK-MEL-28 melanoma = system: SK-MEL-28 melanoma
T-47D breast = system: T-47D breast
786-0 renal = system: 786-0 renal
SNB-75 CNS = system: SNB-75 CNS
SF-268 CNS = system: SF-268 CNS
SF-539 CNS = system: SF-539 CNS
SN12C renal = system: SN12C renal
HOP-62 NSCLC = system: HOP-62 NSCLC
RPMI-8226 leukemia = system: RPMI-8226 leukemia
OVCAR-8 ovarian = system: OVCAR-8 ovarian
K-562 leukemia = system: K-562 leukemia
SF-295 CNS = system: SF-295 CNS
MOLT-4 leukemia = system: MOLT-4 leukemia
HS 578T breast = system: HS 578T breast
NCI-H23 lung = system: NCI-H23 lung
KM12 colon = system: KM12 colon
IGROV1 ovarian = system: IGROV1 ovarian
SK-OV-3 ovarian = system: SK-OV-3 ovarian
MALME-3M melanoma = system: MALME-3M melanoma
SR leukemia = system: SR leukemia
NCI-H460 lung = system: NCI-H460 lung
HCC-2998 colon = system: HCC-2998 colon
SW-620 colon = system: SW-620 colon
LOX IMVI melanoma = system: LOX IMVI melanoma
MDA-MB-435 = system: MDA-MB-435

CC(C)(F)C[C@H](N[C@@H](c1ccc(-c2ccc(S(C)(=O)=O)cc2)cc1)C(F)(F)F)C(=O)NC1(C#N)CC1
40.7 µM and 53.5 µM: TGI (HOP-62 NSCLC)
> 55 µM and 47.9 µM: TGI (OVCAR-3 ovarian)
55 µM and 50.9 µM: TGI (SF-295 CNS)
55 µM and 70.7 µM: TGI (SK-OV-3 ovarian)
55 µM and 62 µM: TGI (MALME-3M melanoma)
42.8 µM and 47.4 µM: TGI (OVCAR-4 ovarian)
55 µM and 63.9 µM: TGI (HS 578T breast)
30.3 µM and 28.4 µM: TGI (HOP-92 NSCLC)
55 µM and 63.6 µM: TGI (NCI-H226 lung)
55 µM and > 100 µM: TGI (HCT-116 colon) | TGI (U251 CNS) | TGI (PC-3 prostate) | TGI (UACC-62 melanoma) | TGI (MDA-MB-231 breast) | TGI (MCF7 breast) | TGI (SK-MEL-2 melanoma) | TGI (CAKI-1 renal) | TGI (DU-145 prostate) | TGI (A498 renal) | TGI (NCI-H522 lung) | TGI (UO-31 renal) | TGI (SK-MEL-28 melanoma) | TGI (T-47D breast) | TGI (SN12C renal) | TGI (NCI-H23 lung) | TGI (NCI-H460 lung)
55 µM: TGI (EKVX NSCLC) | TGI (NCI/ADR-RES ovarian)
18 µM and 45.2 µM: TGI (RXF 393 renal)
> 55 µM and 81.2 µM: TGI (TK-10 renal)
55 µM and 62.2 µM: TGI (SNB-19 CNS)
55 µM and 87.8 µM: TGI (786-0 renal)
55 µM and 91.2 µM: TGI (IGROV1 ovarian)
> 100 µM: TGI (HCT-15 colon) | TGI (CCRF-CEM leukemia) | TGI (HL-60(TB) leukemia) | TGI (A549 NSCLC) | TGI (SK-MEL-5 melanoma) | TGI (UACC-257 melanoma) | TGI (COLO 205 colon) | TGI (ACHN renal) | TGI (M14 melanoma) | TGI (OVCAR-5 ovarian) | TGI (HT29 colon) | TGI (RPMI-8226 leukemia) | TGI (K-562 leukemia) | TGI (MOLT-4 leukemia) | TGI (KM12 colon) | TGI (SR leukemia) | TGI (HCC-2998 colon) | TGI (SW-620 colon) | TGI (LOX IMVI melanoma) | TGI (MDA-MB-435)
29.8 µM and 39.4 µM: TGI (SNB-75 CNS)
55 µM and 82.8 µM: TGI (BT-549 breast)
inactive: GI50 (HCT-116 colon) 22 µM and > 100 µM | GI50 (EKVX NSCLC) 30.7 µM | GI50 (U251 CNS) 17.9 µM and 30.3 µM | GI50 (OVCAR-3 ovarian) > 55 µM and 19.9 µM | GI50 (PC-3 prostate) 36.9 µM and 27.9 µM | GI50 (HCT-15 colon) > 100 µM | GI50 (UACC-62 melanoma) 27.3 µM and 51.9 µM | GI50 (HOP-92 NSCLC) 5.81 µM and 7.42 µM | GI50 (CCRF-CEM leukemia) > 100 µM | GI50 (MDA-MB-231 breast) 18.6 µM and 34.4 µM | GI50 (HL-60(TB) leukemia) > 100 µM | GI50 (A549 NSCLC) > 55 µM and 41.8 µM | GI50 (SK-MEL-5 melanoma) > 55 µM and 73.1 µM | GI50 (SNB-19 CNS) 16.6 µM and 18.3 µM | GI50 (MCF7 breast) 35 µM and > 100 µM | GI50 (TK-10 renal) > 55 µM and 31.1 µM | GI50 (BT-549 breast) 8.65 µM and 28.2 µM | GI50 (UACC-257 melanoma) > 55 µM and 61.8 µM | GI50 (SK-MEL-2 melanoma) 13.4 µM and 38.6 µM | GI50 (OVCAR-4 ovarian) 9.47 µM and 19.5 µM | GI50 (COLO 205 colon) > 100 µM | GI50 (ACHN renal) > 55 µM and 39.5 µM | GI50 (CAKI-1 renal) 18.7 µM and 27.4 µM | GI50 (M14 melanoma) > 100 µM | GI50 (NCI-H226 lung) 16.4 µM and 23.6 µM | GI50 (NCI/ADR-RES ovarian) 34.1 µM | GI50 (DU-145 prostate) 47.6 µM and 44.4 µM | GI50 (A498 renal) 33.6 µM and 28 µM | GI50 (OVCAR-5 ovarian) > 100 µM | GI50 (NCI-H522 lung) 15.8 µM and 24.7 µM | GI50 (UO-31 renal) 49.3 µM and 23.2 µM | GI50 (HT29 colon) > 100 µM | GI50 (RXF 393 renal) 7.14 µM and 20.5 µM | GI50 (SK-MEL-28 melanoma) 49.1 µM and 36.3 µM | GI50 (T-47D breast) 35.7 µM and 99.7 µM | GI50 (786-0 renal) 9.02 µM and 26.2 µM | GI50 (SNB-75 CNS) 7.51 µM and 16.4 µM | GI50 (SF-268 CNS) 22 µM and 18.8 µM | GI50 (SF-539 CNS) 11.8 µM and 23.1 µM | GI50 (SN12C renal) 14.8 µM and 42.6 µM | GI50 (HOP-62 NSCLC) 12.2 µM and 22.6 µM | GI50 (RPMI-8226 leukemia) > 100 µM | GI50 (OVCAR-8 ovarian) 18 µM and 19.5 µM | GI50 (K-562 leukemia) > 100 µM | GI50 (SF-295 CNS) 18.8 µM and 17.9 µM | GI50 (MOLT-4 leukemia) > 100 µM | GI50 (HS 578T breast) 13.6 µM and 21.1 µM | GI50 (NCI-H23 lung) 28.5 µM and 39.9 µM | GI50 (KM12 colon) > 100 µM | GI50 (IGROV1 ovarian) 33.2 µM and 30.2 µM | GI50 (SK-OV-3 ovarian) 23 µM and 27.5 µM | GI50 (MALME-3M melanoma) 17.5 µM and 22.2 µM | GI50 (SR leukemia) 93.1 µM | GI50 (NCI-H460 lung) 33.6 µM and 49.7 µM | GI50 (HCC-2998 colon) > 100 µM | GI50 (SW-620 colon) > 100 µM | GI50 (LOX IMVI melanoma) > 100 µM | GI50 (MDA-MB-435) > 100 µM
31.8 µM and 53.2 µM: TGI (SF-539 CNS)
55 µM and 48.9 µM: TGI (SF-268 CNS)
55 µM and 63.8 µM: TGI (OVCAR-8 ovarian)
